System: MV-4-11 cells
Assay: Gene expression microarray analysis (Affymetrix PrimeView) and GSEA
Format: cell-based, human
Set-up: RFU PODN (11730768_x_at) / Fold change /veh PODN (11730768_x_at) / RFU LINC00158 (11744669_a_at) / Fold change /veh LINC00158 (11744669_a_at) / RFU DUSP10 (11751237_a_at) / Fold change /veh DUSP10 (11751237_a_at) / RFU ID3 (11757404_x_at) / Fold change /veh ID3 (11757404_x_at) / RFU PLEKHG5 (11737974_s_at) / Fold change /veh PLEKHG5 (11737974_s_at) / RFU LRRC4B (11730491_at) / Fold change /veh LRRC4B (11730491_at) / RFU GIMAP4 (11747438_a_at) / Fold change /veh GIMAP4 (11747438_a_at) / RFU KRT8 (11758183_x_at) / Fold change /veh KRT8 (11758183_x_at) / RFU CNN1 (11734310_a_at) / Fold change /veh CNN1 (11734310_a_at) / RFU VPS37D (11726825_at) / Fold change /veh VPS37D (11726825_at) / RFU C10orf10 (11716522_x_at) / Fold change /veh C10orf10 (11716522_x_at) / RFU KIR2DL2 /// KIR2DL4 /// KIR2DL5A /// KIR2DL5B /// KIR2DS1 /// KIR2DS2 /// KIR2DS3 /// KIR2DS4 /// KIR3DL3 /// KIR3DL3 /// KIR3DS1 (11738374_at) / Fold change /veh KIR2DL2 /// KIR2DL4 /// KIR2DL5A /// KIR2DL5B /// KIR2DS1 /// KIR2DS2 /// KIR2DS3 /// KIR2DS4 /// KIR3DL3 /// KIR3DL3 /// KIR3DS1 (11738374_at) / RFU C1QL1 (11718748_at) / Fold change /veh C1QL1 (11718748_at) / RFU TMPRSS4 (11747572_a_at) / Fold change /veh TMPRSS4 (11747572_a_at) / RFU HAMP (11756126_x_at) / Fold change /veh HAMP (11756126_x_at) / RFU RNFT2 (11725882_a_at) / Fold change /veh RNFT2 (11725882_a_at) / RFU NR4A2 (11747474_a_at) / Fold change /veh NR4A2 (11747474_a_at) / RFU ABCC12 (11746883_a_at) / Fold change /veh ABCC12 (11746883_a_at) / RFU TMEM136 (11760407_x_at) / Fold change /veh TMEM136 (11760407_x_at) / RFU CLDN22 /// WWC2 (11732394_at) / Fold change /veh CLDN22 /// WWC2 (11732394_at) / RFU HLA-DPB1 (11760878_x_at) / Fold change /veh HLA-DPB1 (11760878_x_at) / RFU SPINT1 (11716480_a_at) / Fold change /veh SPINT1 (11716480_a_at) / RFU GAP43 (11754022_s_at) / Fold change /veh GAP43 (11754022_s_at) / RFU A4GNT (11735810_at) / Fold change /veh A4GNT (11735810_at) / RFU PRB3 (11715151_x_at) / Fold change /veh PRB3 (11715151_x_at) / RFU TUBB4B (11761932_at) / Fold change /veh TUBB4B (11761932_at) / RFU CAPN14 (11732068_a_at) / Fold change /veh CAPN14 (11732068_a_at) / RFU TMCC2 (11721928_a_at) / Fold change /veh TMCC2 (11721928_a_at) / RFU IRGQ (11745062_a_at) / Fold change /veh IRGQ (11745062_a_at) / RFU FAM174B (11720279_a_at) / Fold change /veh FAM174B (11720279_a_at) / RFU TMPRSS4 (11748680_a_at) / Fold change /veh TMPRSS4 (11748680_a_at) / RFU FAM212B (11763350_a_at) / Fold change /veh FAM212B (11763350_a_at) / RFU PLEKHG5 (11743358_a_at) / Fold change /veh PLEKHG5 (11743358_a_at) / RFU ZSCAN30 (11745921_a_at) / Fold change /veh ZSCAN30 (11745921_a_at) / RFU CMKLR1 (11741424_a_at) / Fold change /veh CMKLR1 (11741424_a_at) / RFU LOC101060620 /// MAPK8IP1 (11723275_at) / Fold change /veh LOC101060620 /// MAPK8IP1 (11723275_at) / RFU SPTSSB (11747773_x_at) / Fold change /veh SPTSSB (11747773_x_at) / RFU PRSS12 (11739890_at) / Fold change /veh PRSS12 (11739890_at) / RFU BIN1 (11741810_x_at) / Fold change /veh BIN1 (11741810_x_at) / RFU WNT11 (11732464_a_at) / Fold change /veh WNT11 (11732464_a_at) / RFU C10orf10 (11716521_a_at) / Fold change /veh C10orf10 (11716521_a_at) / RFU C5orf56 (11738089_at) / Fold change /veh C5orf56 (11738089_at) / RFU CYB561 (11721691_x_at) / Fold change /veh CYB561 (11721691_x_at) / RFU ANKRD19P (11752326_a_at) / Fold change /veh ANKRD19P (11752326_a_at) / RFU OR2T12 /// OR2T33 /// OR2T8 (11738714_s_at) / Fold change /veh OR2T12 /// OR2T33 /// OR2T8 (11738714_s_at) / RFU VCAN (11748164_a_at) / Fold change /veh VCAN (11748164_a_at) / RFU JSRP1 (11732532_at) / Fold change /veh JSRP1 (11732532_at) / RFU KRTAP10-11 (11738290_x_at) / Fold change /veh KRTAP10-11 (11738290_x_at) / RFU MYO3A (11730013_a_at) / Fold change /veh MYO3A (11730013_a_at) / RFU EBF3 (11725865_a_at) / Fold change /veh EBF3 (11725865_a_at) / RFU CAMK2N1 (11719241_x_at) / Fold change /veh CAMK2N1 (11719241_x_at) / RFU C5orf56 (11738088_a_at) / Fold change /veh C5orf56 (11738088_a_at) / RFU OLFML3 (11715873_a_at) / Fold change /veh OLFML3 (11715873_a_at) / RFU LOC100653217 /// NTM (11731650_a_at) / Fold change /veh LOC100653217 /// NTM (11731650_a_at) / RFU MAPK11 (11762145_a_at) / Fold change /veh MAPK11 (11762145_a_at) / RFU FIZ1 (11724087_x_at) / Fold change /veh FIZ1 (11724087_x_at) / RFU OASL (11726364_x_at) / Fold change /veh OASL (11726364_x_at) / RFU SOX15 (11748057_x_at) / Fold change /veh SOX15 (11748057_x_at) / RFU CD79A (11719716_a_at) / Fold change /veh CD79A (11719716_a_at) / RFU HIST1H1D (11736915_at) / Fold change /veh HIST1H1D (11736915_at) / RFU CASKIN2 (11723855_a_at) / Fold change /veh CASKIN2 (11723855_a_at) / RFU LOC730098 (11760151_x_at) / Fold change /veh LOC730098 (11760151_x_at) / RFU OR4N2 (11742367_at) / Fold change /veh OR4N2 (11742367_at) / RFU PRRT2 (11749266_a_at) / Fold change /veh PRRT2 (11749266_a_at) / RFU SNX32 (11753110_a_at) / Fold change /veh SNX32 (11753110_a_at) / RFU CDHR5 (11726645_a_at) / Fold change /veh CDHR5 (11726645_a_at) / RFU RCAN1 (11760418_a_at) / Fold change /veh RCAN1 (11760418_a_at) / RFU FAM167A (11723789_a_at) / Fold change /veh FAM167A (11723789_a_at) / RFU FAM26E (11764081_at) / Fold change /veh FAM26E (11764081_at) / RFU ISYNA1 (11749810_s_at) / Fold change /veh ISYNA1 (11749810_s_at) / RFU ACY1 (11761880_at) / Fold change /veh ACY1 (11761880_at) / RFU 11764098_at / Fold change /veh 11764098_at / RFU SAMD14 (11745864_x_at) / Fold change /veh SAMD14 (11745864_x_at) / RFU NPB (11741838_a_at) / Fold change /veh NPB (11741838_a_at) / RFU TMPRSS6 (11731388_a_at) / Fold change /veh TMPRSS6 (11731388_a_at) / RFU KRTAP10-2 (11738614_at) / Fold change /veh KRTAP10-2 (11738614_at) / RFU ARHGAP8 /// PRR5-ARHGAP8 (11727945_x_at) / Fold change /veh ARHGAP8 /// PRR5-ARHGAP8 (11727945_x_at) / RFU KRTAP5-7 /// NADSYN1 (11734609_at) / Fold change /veh KRTAP5-7 /// NADSYN1 (11734609_at) / RFU RASL12 (11751679_a_at) / Fold change /veh RASL12 (11751679_a_at) / RFU CDKN2B (11736163_a_at) / Fold change /veh CDKN2B (11736163_a_at) / RFU PRF1 (11729649_at) / Fold change /veh PRF1 (11729649_at) / RFU, ZNF638 /// ZNF638-IT1 / Fold change vs veh, ZNF638 /// ZNF638-IT1 / RFU, PANK3 / Fold change vs veh, PANK3 / RFU, SH3YL1 / Fold change vs veh, SH3YL1 / RFU, ZEB2 / Fold change vs veh, ZEB2 / RFU, NRIP1 / Fold change vs veh, NRIP1 / RFU, PTTG1IP / Fold change vs veh, PTTG1IP / RFU, CAPN2 / Fold change vs veh, CAPN2 / RFU, MED14 / Fold change vs veh, MED14 / RFU, SNORA58 / Fold change vs veh, SNORA58 / RFU, C1orf63 / Fold change vs veh, C1orf63 / RFU, LRRFIP1 / Fold change vs veh, LRRFIP1 / RFU, NDUFAF7 / Fold change vs veh, NDUFAF7 / RFU, SLC12A2 / Fold change vs veh, SLC12A2 / RFU, IBTK / Fold change vs veh, IBTK / RFU, ESF1 / Fold change vs veh, ESF1 / Fold change vs veh, TMEM50B / RFU, TAOK1 / Fold change vs veh, TAOK1 / RFU, ACBD3 / Fold change vs veh, ACBD3 / RFU, TMA16 / Fold change vs veh, TMA16 / RFU, RWDD3 / Fold change vs veh, RWDD3 / RFU, BCAT1 / Fold change vs veh, BCAT1 / RFU, EDEM3 / Fold change vs veh, EDEM3 / RFU, TMEM33 / Fold change vs veh, TMEM33 / RFU, WDR75 / Fold change vs veh, WDR75 / RFU, AHCTF1 / Fold change vs veh, AHCTF1 / RFU, TFRC / Fold change vs veh, TFRC / RFU, ZDHHC17 / Fold change vs veh, ZDHHC17 / RFU, NOM1 / Fold change vs veh, NOM1 / RFU, ARL8B / Fold change vs veh, ARL8B / RFU, ZBTB11 / Fold change vs veh, ZBTB11 / RFU, TAMM41 / Fold change vs veh, TAMM41 / RFU, KIAA1704 /// LOC100996395 / Fold change vs veh, KIAA1704 /// LOC100996395 / RFU, ING1 / Fold change vs veh, ING1 / RFU, TRMT61B / Fold change vs veh, TRMT61B / RFU, FUBP3 / Fold change vs veh, FUBP3 / RFU, TP53 / Fold change vs veh, TP53 / RFU, TNKS2 / Fold change vs veh, TNKS2 / RFU, ZFP14 / Fold change vs veh, ZFP14 / RFU, ACTR2 / Fold change vs veh, ACTR2 / RFU, PPP3R1 / Fold change vs veh, PPP3R1 / RFU, PIK3R1 / Fold change vs veh, PIK3R1 / RFU, HNRNPA1 / Fold change vs veh, HNRNPA1 / RFU, RNF170 / Fold change vs veh, RNF170 / RFU, ZNF28 / Fold change vs veh, ZNF28 / RFU, RNGTT / Fold change vs veh, RNGTT / RFU, OGT / Fold change vs veh, OGT / RFU, BRD1 / Fold change vs veh, BRD1 / RFU, MARS / Fold change vs veh, MARS / RFU, ZNF655 / Fold change vs veh, ZNF655 / RFU, FAHD1 / Fold change vs veh, FAHD1 / RFU, BDP1 / Fold change vs veh, BDP1 / RFU, LRRCC1 / Fold change vs veh, LRRCC1 / RFU, ARID1A / Fold change vs veh, ARID1A / RFU, ZNF146 / Fold change vs veh, ZNF146 / RFU, ZNF330 / Fold change vs veh, ZNF330 / RFU, GPN3 / Fold change vs veh, GPN3 / RFU, C9orf123 / Fold change vs veh, C9orf123 / RFU, N4BP2L2 / Fold change vs veh, N4BP2L2 / RFU, ARFIP1 / Fold change vs veh, ARFIP1 / RFU, FAM179B / Fold change vs veh, FAM179B / RFU, BCL10 / Fold change vs veh, BCL10 / RFU, UHRF1BP1L / Fold change vs veh, UHRF1BP1L / RFU, BET1 / Fold change vs veh, BET1 / RFU, CNOT2 / Fold change vs veh, CNOT2 / RFU, ZNF268 / Fold change vs veh, ZNF268 / Fold change vs veh, ZNF507 / RFU, DGCR2 / Fold change vs veh, DGCR2 / RFU, WDSUB1 / Fold change vs veh, WDSUB1 / Fold change vs veh, HSP90B1 /// MIR3652 / RFU, ADSS / Fold change vs veh, ADSS / RFU, GK / Fold change vs veh, GK / RFU, ZNF148 / Fold change vs veh, ZNF148 / RFU, TAF9 / Fold change vs veh, TAF9 / RFU, SLC1A5 / Fold change vs veh, SLC1A5 / RFU, SLMO2 / Fold change vs veh, SLMO2 / RFU, ABCC4 / Fold change vs veh, ABCC4 / RFU, LOC101060439 /// RAP1B / Fold change vs veh, LOC101060439 /// RAP1B / RFU, RFX7 / Fold change vs veh, RFX7 / RFU, GTPBP10 / Fold change vs veh, GTPBP10 / RFU, CNEP1R1 / Fold change vs veh, CNEP1R1 / RFU, BIVM-ERCC5 /// ERCC5 / Fold change vs veh, BIVM-ERCC5 /// ERCC5 / RFU, ILF3 / Fold change vs veh, ILF3 / RFU 11762660_at / Fold change /veh 11762660_at / RFU VCAN (11757783_s_at) / Fold change /veh VCAN (11757783_s_at) / RFU DDX43 (11728927_at) / Fold change /veh DDX43 (11728927_at) / RFU KRT8 (11758188_x_at) / Fold change /veh KRT8 (11758188_x_at) / RFU NKD1 (11759106_at) / Fold change /veh NKD1 (11759106_at) / RFU SRD5A1 (11742802_a_at) / Fold change /veh SRD5A1 (11742802_a_at) / RFU TPSAB1 /// TPSB2 (11721975_s_at) / Fold change /veh TPSAB1 /// TPSB2 (11721975_s_at) / RFU GSTM3 (11746129_a_at) / Fold change /veh GSTM3 (11746129_a_at) / RFU IL23R (11737362_x_at) / Fold change /veh IL23R (11737362_x_at) / RFU TMEM51 (11727254_a_at) / Fold change /veh TMEM51 (11727254_a_at) / RFU PIWIL2 (11732686_x_at) / Fold change /veh PIWIL2 (11732686_x_at) / RFU ORM1 (11744905_x_at) / Fold change /veh ORM1 (11744905_x_at) / RFU CCDC152 (11743942_at) / Fold change /veh CCDC152 (11743942_at) / RFU ECM1 (11717891_a_at) / Fold change /veh ECM1 (11717891_a_at) / RFU IL23R (11748794_a_at) / Fold change /veh IL23R (11748794_a_at) / RFU TNFAIP8L3 (11732012_x_at) / Fold change /veh TNFAIP8L3 (11732012_x_at) / RFU MBOAT4 (11741988_at) / Fold change /veh MBOAT4 (11741988_at) / RFU 11764193_at / Fold change /veh 11764193_at / RFU TMEM53 (11763286_at) / Fold change /veh TMEM53 (11763286_at) / RFU MAGEB2 (11727129_at) / Fold change /veh MAGEB2 (11727129_at) / RFU TMEM200A (11744735_a_at) / Fold change /veh TMEM200A (11744735_a_at) / RFU CCDC152 (11751479_a_at) / Fold change /veh CCDC152 (11751479_a_at) / RFU FAM211A (11726209_a_at) / Fold change /veh FAM211A (11726209_a_at) / RFU RGS16 (11746705_a_at) / Fold change /veh RGS16 (11746705_a_at) / RFU VCAN (11755009_s_at) / Fold change /veh VCAN (11755009_s_at) / RFU RHOB (11743442_s_at) / Fold change /veh RHOB (11743442_s_at) / RFU RGS16 (11720943_a_at) / Fold change /veh RGS16 (11720943_a_at) / RFU RGS16 (11720944_at) / Fold change /veh RGS16 (11720944_at) / RFU, VPS4B / Fold change vs veh, VPS4B / RFU, CREB1 / Fold change vs veh, CREB1 / RFU, DNAJC13 / Fold change vs veh, DNAJC13 / RFU, GNAQ / Fold change vs veh, GNAQ / RFU, CDK5R1 / Fold change vs veh, CDK5R1 / RFU, ZRANB3 / Fold change vs veh, ZRANB3 / RFU, CUL4A / Fold change vs veh, CUL4A / RFU, CCNY / Fold change vs veh, CCNY / RFU, UFL1 / Fold change vs veh, UFL1 / RFU, COG3 / Fold change vs veh, COG3 / RFU, DIAPH2 / Fold change vs veh, DIAPH2 / RFU, SKA2 / Fold change vs veh, SKA2 / RFU, AFF3 / Fold change vs veh, AFF3 / RFU, LMF1 / Fold change vs veh, LMF1 / RFU, IPO11 / Fold change vs veh, IPO11 / RFU, DFFB / Fold change vs veh, DFFB / RFU, FOXP1 / Fold change vs veh, FOXP1 / RFU, CARD8 / Fold change vs veh, CARD8 / RFU, STRN3 / Fold change vs veh, STRN3 / RFU, ADK / Fold change vs veh, ADK / RFU, RASSF2 / Fold change vs veh, RASSF2 / RFU, WIPF1 / Fold change vs veh, WIPF1 / RFU, LARP1B / Fold change vs veh, LARP1B / RFU, RASA1 / Fold change vs veh, RASA1 / RFU, RB1 / Fold change vs veh, RB1 / RFU, PPFIA1 / Fold change vs veh, PPFIA1 / RFU, MAT2A / Fold change vs veh, MAT2A / RFU, CCT5 / Fold change vs veh, CCT5 / RFU, WDR92 / Fold change vs veh, WDR92 / RFU, CUX1 / Fold change vs veh, CUX1 / RFU, TTC7A / Fold change vs veh, TTC7A / RFU, TMEM135 / Fold change vs veh, TMEM135 / RFU, DEPTOR / Fold change vs veh, DEPTOR / RFU, CPM / Fold change vs veh, CPM / RFU, DNAJB6 / Fold change vs veh, DNAJB6 / RFU, CACNA2D3 / Fold change vs veh, CACNA2D3 / RFU, DTX4 / Fold change vs veh, DTX4 / RFU, TFCP2 / Fold change vs veh, TFCP2 / RFU, GMCL1 /// GMCL1P1 / Fold change vs veh, GMCL1 /// GMCL1P1 / RFU, AEBP2 / Fold change vs veh, AEBP2 / RFU, SNHG1 /// SNORD22 /// SNORD25 /// SNORD26 /// SNORD27 /// SNORD28 /// SNORD29 /// SNORD31 / Fold change vs veh, SNHG1 /// SNORD22 /// SNORD25 /// SNORD26 /// SNORD27 /// SNORD28 /// SNORD29 /// SNORD31 / Fold change (Aza/veh), C12orf56 (ProbeSet 11735607_a_at) / Fold change (ACY-1035/veh), C12orf56 (ProbeSet 11735607_a_at) / Fold change (Aza/veh), FGFR1OP (ProbeSet 11751329_s_at) / Fold change (ACY-1035/veh), FGFR1OP (ProbeSet 11751329_s_at) / Fold change (Aza/veh), VPS36 (ProbeSet 11739960_a_at) / Fold change (ACY-1035/veh), VPS36 (ProbeSet 11739960_a_at) / RFU SYPL1 (11715823_x_at) / Fold change /veh SYPL1 (11715823_x_at) / RFU IGFBP7 (11715501_s_at) / Fold change /veh IGFBP7 (11715501_s_at) / RFU REEP3 (11722064_at) / Fold change /veh REEP3 (11722064_at) / RFU IGLL1 (11728026_x_at) / Fold change /veh IGLL1 (11728026_x_at): dose or concentration left out as unconfirmed
Settings: MV-4-11 cells, 48 hours

Nc1ncn([C@@H]2O[C@H](CO)[C@@H](O)[C@H]2O)c(=O)n1 [azacitidine]
RFU TMCC2 (11721928_a_at): 12.72 RFU
